Reference: patent publication US5593970A, “Heterocyclic anthracycline analogs” (priority 1994, dated 1997)
Values joined by “and” are separate entries in the source; they are usually repeats but may differ in a detail not shown here. Equal values may be shown once. Where a name gives a salt, the structure may show the parent alone. Read-outs that look alike come from different tables or passages of the source.

What was measured:
Experiment in all cases: Microculture tetrazolium assay
Format in all cases: cell-based
[1] = test system: SKVLB; conditions: for VLB/OV3: IC50 ratio SKVLB/SKOV3; for IC50: SKVLB
[2] = test system: SKOV3
[3] = test system: LOX
[4] = test system: HT29
[5] = Homo sapiens, SK-OV-3, SKOV3, read-out: IC50
[6] = Homo sapiens, HT-29, HT29, read-out: IC50
[7] = SKOV3, hydrochloride, read-out: IC50
[8] = HT29, hydrochloride, read-out: IC50

Compound | IC50 ([1]; read-out: IC50) | IC50 [2, 5] [nM] | IC50 ([3]; read-out: IC50) [nM] | IC50 [4, 6] [nM] | VLB/OV3 [1] | also measured
CC[C@H]1CC2=C(C(=O)c3cc4ccccc4c(O)c3C2=O)[C@H](O[C@H]2C[C@H](NC(=O)C(F)(F)F)[C@H](O)[C@H](C)O2)O1 [BCH-1187, (1'S,1S,3S)-5,12-dioxo-3-ethyl-6-hydroxy-1-(2',3',6'-trideoxy-3'-trifluoroacetamido-4'-hydroxy-L-lyxohexopyranose)-3,4,5,12-tetrahydroanthraceno[2,3-c]pyran] | 3860 nM and 3880 nM | 1200 | – | 1420 | 3.22 and 2.10 | IC50 ([2]; SKOV3, read-out: IC50): 1850 nM; IC50 ([4]; HT29, read-out: IC50): 1980 nM
COC(=O)[C@H](C)O[C@@H]1OC(C(=O)OC)(C(=O)OC)CC2=C1C(=O)c1cc3ccccc3c(O)c1C2=O [BCH-1668, (1R,1'S)-3,3-Bis-carbomethoxy-1-(1'-carbomethoxyethoxy)-5,12-dioxo-6-hydroxy-3,4,5,12-tetrahydroanthraceno[2,3-C]pyran] | 6200 nM | 6200 | 5200 | 5700 | – | –
CC(=O)C1CC2=C(C(=O)c3cc4ccccc4c(O)c3C2=O)C(OC[C@H](O)CO)O1 (stereo partly drawn) [BCH-1669] | 1050 nM | 1210 | 631 | 591 | 0.87 | –
CC(=O)C1CC2=C(C(=O)c3cc4ccccc4c(O)c3C2=O)C(OC[C@@H](O)CO)S1 (stereo partly drawn) [BCH-1670] | 680 nM | 547 | 673 | 342 | 1.24 | –
CC(=O)[C@@H]1Cc2c(O)c3c(c(O)c2[C@@H](O[C@@H]2O[C@@H](C)[C@@H](O)[C@@H](O)C2I)O1)C(=O)c1ccccc1C3=O (stereo partly drawn) [BCH-1672] | 990 nM | 343 | 232 | 1670 | 2.89 | –
CC(=O)[C@H]1Cc2c(O)c3c(c(O)c2[C@H](O[C@@H]2O[C@@H](C)[C@@H](O)[C@@H](O)C2I)O1)C(=O)c1ccccc1C3=O (stereo partly drawn) [BCH-1675] | – | – | 1180 | 5280 | – | –
COP(=O)(CC(=O)[C@@H]1CC2=C(C(=O)c3cc4ccccc4c(O)c3C2=O)[C@@H](O[C@H]2C[C@H](NC(=O)C(F)(F)F)[C@H](O)[C@H](C)O2)O1)OC [BCH-1678] | – | – | – | – | 2.54 | IC50 [1]: 13600 nM; IC50 ([2]; Homo sapiens, SK-OV-3, SKOV3): 5360 nM; IC50 [3]: 3770 nM; IC50 ([4]; Homo sapiens, HT-29, HT29): 5650 nM
COP(=O)(CC(=O)[C@H]1CC2=C(C(=O)c3cc4ccccc4c(O)c3C2=O)[C@H](O[C@H]2C[C@H](NC(=O)C(F)(F)F)[C@H](O)[C@H](C)O2)O1)OC [BCH-1679] | – | – | – | – | – | IC50 [1]: 3600 nM; IC50 ([2]; Homo sapiens, SK-OV-3, SKOV3): 1200 nM; IC50 [3]: 1100 nM; IC50 ([4]; Homo sapiens, HT-29, HT29): 1100 nM
CC(C)[C@H]1Cc2c(O)c3c(c(O)c2[C@H](O[C@H]2C[C@H](N4CCOCC4)[C@H](O)[C@H](C)O2)O1)C(=O)c1ccccc1C3=O [BCH-2192, (1'S,1S,3R)-5,12-dihydroxy-6,11-dioxo-3-isopropyl-1-(2',3',6'-trideoxy-3'(4-morpholinyl)-L-lyxohexopyranose)-3,4,5,12-tetrahydroanthraceno-[2,3-c]-pyran hydrochloride] | – | – | – | – | – | VLB/OV3 ([1]; hydrochloride): 1.18; IC50 ([1]; hydrochloride, read-out: IC50): 2280 nM; IC50 [2, 7]: 1930 nM; IC50 [4, 8]: 4650 nM
CC(C)[C@H]1Cc2c(O)c3c(c(O)c2[C@H](O[C@H]2C[C@H](N4CCOCC4C#N)[C@H](O)[C@H](C)O2)O1)C(=O)c1ccccc1C3=O (stereo partly drawn) [BCH-2195, (1'S,1S,3R)-5,12-dihydroxy-6,11-dioxo-3-isopropyl-1-(2',3',6'-trideoxy-3'(3-cyano-4-morpholinyl)-L-lyxohexopyranose)-3,4,5,12-tetrahydroanthraceno-[2,3-c]-pyran] | – | – | – | – | 2.22 | IC50 [1]: 10100 nM; IC50 ([2]; Homo sapiens, SK-OV-3, SKOV3): 4550 nM; IC50 ([4]; Homo sapiens, HT-29, HT29): 3400 nM

Second part, led by results:

IC50 ([1]; read-out: IC50) | IC50 [2, 5] [nM] | IC50 ([3]; read-out: IC50) [nM] | IC50 [4, 6] [nM] | Compound | VLB/OV3 [1] | also measured
7790 nM | 4710 | 2480 | 5440 | C[C@@H]1O[C@@H](O[C@@H]2O[C@@H](C(C)(F)F)CC3=C2C(=O)c2cc4ccccc4c(O)c2C3=O)C[C@H](NC(=O)C(F)(F)F)[C@@H]1O (mixture of isomers) [BCH-1677, (1'S,1R,3S) and (1'S,1S,3R)-5,12-dioxo-3-(1,1-difluoroethyl)-6-hydroxy-1-(2',3',6'-trideoxy-3'-trifluoroacetamido-L-lyxohexopyranose)-3,4,5,12-tetrahydroanthraceno-[2,3-c]-pyran] | 1.65 | –
3830 nM | 2810 | 2260 | 2240 | CC(=O)C1CC2=C(C(=O)c3cc4ccccc4c(O)c3C2=O)C(O[C@H]2CC[C@H](NC(=O)C(F)(F)F)[C@H](C)O2)O1 (mixture of isomers) [BCH-1680, (1'S,1S,3R) and (1'S, 1R, 3S)-methyl-{6-hydroxy-1(2',3',4',6'-tetradeoxy-4'-trifluoroacetamido-L-lyxohexopyranose)-5,12-dioxo-3,4,5,12-tetrahydroanthraceno-[2,3-c]pyran-3-yl}ketone] | 1.36 | –
4010 nM | 2460 | 2310 | 3050 | C[C@@H]1O[C@@H](O[C@H]2O[C@H](C(C)(F)F)CC3=C2C(=O)c2cc4ccccc4c(O)c2C3=O)C[C@H](NC(=O)C(F)(F)F)[C@@H]1O [BCH-1676, (1'S,1R,3S)-5,12-dioxo-3-(1,1-difluoroethyl)-6-hydroxy-1-(2',3',6'-trideoxy-3'-trifluoroacetamido-L-lyxohexopyranose)-3,4,5,12-tetrahydroanthraceno-[2,3-c]-pyran] | 1.63 | –
671 nM | 914 | 454 | 123 | CC(=O)[C@H]1CC2=C(C(=O)c3cc4ccccc4c(O)c3C2=O)[C@H](O[C@@H]2O[C@@H](C)[C@@H](O)[C@@H](O)C2I)O1 (stereo partly drawn) [BCH-1681] | 0.73 | –
> 100000 nM | 24700 | 16400 | 25800 | CC(NC(=O)C(F)(F)F)C1Cc2c(O)c3c(c(O)c2C(O[C@H]2C[C@H](O)[C@H](O)[C@H](C)O2)O1)C(=O)c1ccccc1C3=O (stereo partly drawn) [BCH-1682] | – | –
11400 nM | 3070 | 2290 | 1350 | CC(N)C1Cc2c(O)c3c(c(O)c2C(O[C@H]2C[C@H](O)[C@H](O)[C@H](C)O2)O1)C(=O)c1ccccc1C3=O (stereo partly drawn) [BCH-1683, (1'S ,1S,3R)-3(aminoethyl)-5,12-dihydroxyl-1(2,3,6-trideoxy-3,4-dihydroxy-L-lyxohexopyranose)-6,11-dioxo-3,4,6,11-tetrahydro-1H-anthra[2,3-c]pyran hydrochloride] | 3.71 | –
53200 nM | 810 | 683 | 1930 | CC(=O)[C@@H]1Cc2c(O)c3c(c(O)c2[C@@H](O[C@H]2O[C@H](CO)[C@@H](O)[C@H](O)[C@H]2N)O1)C(=O)c1ccccc1C3=O [BCH-1685, (1'R, 1R,3S)-3-aceto-5,12-dihydroxy-1(2-deoxy-2-amino-D-glucopyranose)-6,11-dioxo-3,4,6,11-tetrahydro-1H-anthra-[2,3-c]pyran] | 65.68 | –
2530 nM | 972 | 684 | 1840 | C=CC[C@H]1CC2=C(C(=O)c3cc4ccccc4c(O)c3C2=O)[C@H](O[C@H]2C[C@H](NC(=O)C(F)(F)F)[C@H](O)[C@H](C)O2)O1 [BCH-1686, (1'S,1S,3S)-3-(6-hydroxy-1-(2',3',6'-trideoxy-3'-trifluoroacetamido-4'-hydroxy-L-lyxohexopyranose)-5,12-dioxo-3,4,5,12-tetrahydroanthraceno-[2,3-C]pyran-3-yl)propene] | 2.60 | –
4640 nM | – | 554 | – | C[C@@H]1O[C@@H](O[C@@H]2O[C@@H](c3ccccc3)CC3=C2C(=O)c2cc4ccccc4c(O)c2C3=O)C[C@H](N)[C@@H]1O [BCH-2013] | – | –
198 nM | 374 | – | 211 | C=C(C)[C@H]1Cc2c(O)c3c(c(O)c2[C@H](O[C@H]2C[C@H](N)[C@H](O)[C@H](C)O2)O1)C(=O)c1ccccc1C3=O [BCH-2188, (1'S,1S,3R)-5,12-dihydroxy-6,11-dioxo-3-isopropenyl-1-(2',3',6'-trideoxy-3'-amino-L-lyxohexopyranose)-3,4,5,12-tetrahydroanthraceno-[2,3-c]-pyran hydrochloride] | – | VLB/OV3 ([1]; hydrochloride): 0.53 and 0.46; IC50 ([1]; hydrochloride, read-out: IC50): 297 nM; IC50 [2, 7]: 640 nM; IC50 [4, 8]: 310 nM
– | 268 | – | 147 | C=C(C)[C@@H]1Cc2c(O)c3c(c(O)c2[C@@H](O[C@H]2C[C@H](N)[C@H](O)[C@H](C)O2)O1)C(=O)c1ccccc1C3=O [BCH-2189, (1'S,1R,3S)-5,12-dihydroxy-6,11-dioxo-3-isopropenyl-1-(2',3',6'-trideoxy-3'-amino-L-lyxohexopyranose)-3,4,5,12-tetrahydroanthraceno-[2,3-c]-pyran hydrochloride] | – | VLB/OV3 ([1]; hydrochloride): 0.39 and 0.73; IC50 [2, 7]: 342 nM; IC50 [4, 8]: 144 nM
3180 nM | 1650 | – | 3710 | CC(C)[C@H]1Cc2c(O)c3c(c(O)c2[C@H](O[C@H]2C[C@H](N4CCOCC4)[C@H](O)[C@H](C)O2)O1)C(=O)c1ccccc1C3=O [BCH-2190, (1'S,1S,3R)-5,12-dihydroxy-6,11-dioxo-3-isopropyl-1-(2',3',6-trideoxy-3'-(4-morpholinyl)-L-lyxohexopyranose)-3,4,5,12-tetrahydroanthraceno-[2,3-c]-pyran] | 1.93 | –
5200 nM | 3500 | – | 5100 | C[C@@H]1O[C@@H](O[C@@H]2O[C@@H](C(=O)OC(C)(C)C)CC3=C2C(=O)c2cc4ccccc4c(O)c2C3=O)C[C@H](NC(=O)C(F)(F)F)[C@@H]1O [BCH-2850] | 1.49 | –
